From the supplement of paper PMC3493320

Legend:
NCI-H295R [1] = assay: IC50 (antiproliferative, ATP content); settings: 48 h
NCI-H295R [2] = assay: maximal response (efficacy) relative to DMSO (0%) and doxorubicin (-100%); higher = less growth inhibition; settings: 48 h

Row | Compound | IC50 (NCI-H295R [1]) [µM] | maximal response (NCI-H295R [2]) [%]
1 | O=C(Nc1ccc(Br)cc1)c1cc(Br)cc(Br)c1O | 5.31 | -118
2 | N=C(N)NN=C(/C=C/c1ccc([N+](=O)[O-])o1)/C=C/c1ccc([N+](=O)[O-])o1 | 5.31 | -124
3 | C=C1/C(=C\C=C2/CCC[C@]3(C)[C@@H]([C@H](C)CCCC(C)(C)O)CC[C@@H]23)C[C@@H](O)C[C@@H]1O | 18.8 | -140
4 | O=C3O[C@@H]2[C@@H]1O[C@@](C)1CC/C=C(C)/CC[C@H]2[C@@]3=C | 18.8 | -138
5 | C[n+]1c2cc(N)ccc2cc2ccc(N)cc21.Nc1ccc2cc3ccc(N)cc3nc2c1.[Cl-] | 21.1 | -168
6 | C=C1/C(=C\C=C2/CCC[C@]3(C)[C@@H]([C@H](C)CCCC(C)C)CC[C@@H]23)C[C@@H](O)C[C@@H]1O | 23.7 | -142
7 | S=c1[nH]cnc2[nH]cnc12 | 2.37 | -71.8
8 | COC(=O)C[C@](O)(CCCC(C)(C)O)C(=O)O[C@@H]1C(OC)=C[C@]23CCCN2CCc2cc4c(cc2[C@H]13)OCO4 | 0.211 | -125
9 | COC(COC(N)=O)C1=C(N2CC2)C(=O)C(C)=C(N2CC2)C1=O (stereo not drawn) | 0.75 | -120
10 | Oc1cccc[c]1[Hg][Cl] | 2.66 | -130
11 | C[C@H]1CC[C@@H]2[C@@H](C)[C@H]3[C@H](C[C@H]4[C@@H]5CC=C6CC(O[C@@H]7O[C@H](CO)[C@H](O)[C@H](O[C@@H]8O[C@H](CO)[C@@H](O)[C@H](O)[C@H]8O)[C@H]7O[C@H]7O[C@@H](C)[C@H](O)[C@@H](O)[C@H]7O)CC[C@]6(C)[C@H]5CC[C@]34C)N2C1 (stereo partly drawn) | 18.8 | -135
12 | Cn1cnc([N+](=O)[O-])c1Sc1ncnc2nc[nH]c12 | 11.9 | -82.1
13 | C[CH2][Hg][S]c1ccccc1C(=O)[O-].[Na+] | 2.66 | -124
14 | c1ccc2c(c1)OCC(C1=NCCN1)O2 (stereo not drawn) | 18.8 | -106
15 | CC[P](CC)(CC)=[Au][S][C@H]1O[C@@H](COC(C)=O)[C@H](OC(C)=O)[C@@H](OC(C)=O)[C@@H]1OC(C)=O | 1.88 | -128
16 | C[C@]12O[C@H](C[C@]1(O)CO)n1c3ccccc3c3c4c(c5c6ccccc6n2c5c31)CNC4=O | 18.8 | -150

Row | Compound | IC50 (NCI-H295R [1]) [µM] | maximal response (NCI-H295R [2]) [%]
17 | CO[C@@H]1[C@H](C)O[C@@H](O[C@H]2C[C@@H](Oc3cc4cc5c(c(O)c4c(O)c3C)C(=O)[C@H](O[C@@H]3C[C@H](O[C@@H]4C[C@H](O[C@@H]6C[C@@](C)(O)[C@H](OC(C)=O)[C@@H](C)O6)[C@@H](O)[C@H](C)O4)[C@@H](O)[C@H](C)O3)[C@@H]([C@@H](OC)C(=O)[C@H](O)[C@H](C)O)C5)O[C@@H](C)[C@H]2OC(C)=O)C[C@@H]1O | 1.06 | -111
18 | COc1ccc(CN2CCN(C(c3ccc(F)cc3)c3ccc(F)cc3)CC2)c(OC)c1OC | 21.1 | -95.1
19 | O=c1oc2ccccc2c(O)c1C(CC(O)c1ccc(-c2ccc(Br)cc2)cc1)c1ccccc1 (stereo not drawn) | 9.44 | -115
20 | Cc1cc2c(C(C)C)c(O)c(O)c(C=O)c2c(O)c1-c1c(C)cc2c(C(C)C)c(O)c(O)c(C=O)c2c1O | 10.6 | -127
21 | Clc1ccc(COC(Cn2ccnc2)c2ccc(Cl)cc2Cl)cc1.O=[N+]([O-])O (stereo not drawn) | 26.6 | -149
22 | CO[C@H](C(=O)[C@@H](O)[C@@H](C)O)[C@@H]1Cc2cc3cc(O[C@H]4C[C@@H](O[C@H]5C[C@@H](O)[C@H](O)[C@@H](C)O5)[C@@H](O)[C@@H](C)O4)c(C)c(O)c3c(O)c2C(=O)[C@H]1O[C@H]1C[C@@H](O[C@H]2C[C@@H](O[C@H]3C[C@](C)(O)[C@H](O)[C@@H](C)O3)[C@H](O)[C@@H](C)O2)[C@H](O)[C@@H](C)O1 | 0.944 | -118
23 | C=CCNC1=C2C[C@@H](C)C[C@H](OC)[C@H](O)[C@@H](C)/C=C(\C)[C@H](OC(N)=O)[C@@H](OC)/C=C\C=C(/C)C(=O)NC(=CC1=O)C2=O | 8.41 | -105
24 | O=C1NCN(c2ccccc2)C12CCN(CCCC(c1ccc(F)cc1)c1ccc(F)cc1)CC2 | 11.9 | -137
25 | CCCCC(=O)OCC(=O)[C@]1(O)Cc2c(O)c3c(c(O)c2[C@@H](O[C@H]2C[C@H](NC(=O)C(F)(F)F)[C@H](O)[C@H](C)O2)C1)C(=O)c1c(OC)cccc1C3=O | 13.3 | -71.8
26 | [K+].[K+].[O]=[Cr](=[O])([O-])[O][Cr](=[O])(=[O])[O-] | 11.9 | -166
27 | O=C([C@](C(C=C4OC)=C(C=C4OC)OC3)([H])[C@]3([H])O2)C(C=C5)=C2C1=C5O[C@@H]([C@@](C)=C)C1 | 0.75 | -69.2
28 | CCCCCCCCCCCCCC[N+](C)(C)C.[Br-] | 23.7 | -160
29 | [C@@]82([C@@]([C@@H](/C1=C/C(=O)OC1)CC2)(CC[C@@H]9[C@]7(CCC(O[C@@H]3O[C@@H]([C@H]([C@H](C3)O)O[C@@H]6O[C@@H]([C@@H](O[C@@H]5O[C@@H]([C@@H](O[C@H]4[C@@H]([C@@H](O)[C@@H]([C@H](O4)CO)O)O)[C@H](C5)OC(=O)C)C)[C@H](C6)O)C)C)C[C@H]7CC[C@@H]89)C)C)O (stereo partly drawn) | 0.188 | -114
30 | [O-]n1ccccc1=S.[O-]n1ccccc1=S.[Zn+2] | 2.66 | -125
31 | CS(=O)(=O)O.Cc1ccc(NC(=O)c2ccc(CN3CCN(C)CC3)cc2)cc1Nc1nccc(-c2cccnc2)n1 | 18.8 | -61.7

Second part, led by results:

Row | IC50 (NCI-H295R [1]) [µM] | Compound | maximal response (NCI-H295R [2]) [%]
32 | 3.76 | O=C1C(=O)c2ncccc2-c2cccnc21 | -63
33 | 8.41 | CCCCCCCC/C=C\CCCCCCCC(=O)NCc1ccc(O)c(OC)c1 | -122
34 | 11.9 | OC[C@@]([C@@](C[C@@H](C4=C(C(C(C2=C(C=CC=C23)OC)=O)=C(C(O)=C4C5)C3=O)O)O[C@H](O1)C[C@@H]([C@@H]([C@@H]1C)O)N)5O)=O.Cl | -102
35 | 15 | Oc1c(Cl)cc(Cl)c(Cl)c1Cc1c(O)c(Cl)cc(Cl)c1Cl | -121
36 | 15 | CCN1C(=CC=Cc2sc3ccccc3[n+]2CC)Sc2ccccc21.[I-] | -149
37 | 11.9 | O=S(=O)([O-])c1cc(O)c2c(N=Nc3ccc(Nc4ccccc4)c4c(S(=O)(=O)[O-])cccc34)cc(S(=O)(=O)[O-])cc2c1.[Na+].[Na+].[Na+] | -73.8
38 | 0.75 | CCc1nc(N)nc(N)c1-c1ccc(Cl)cc1 | -81.4
39 | 23.7 | CC1=CC(=O)c2ccccc2C1=O | -158
40 | 7.5 | CCc1oc2ccccc2c1C(=O)c1cc(I)c(O)c(I)c1 | -101
41 | 4.73 | O=C(Nc1ccc(Oc2ccc(Cl)cc2)c(Cl)c1)c1cc(I)cc(I)c1O | -137
42 | 3.76 | COc1cc(N[S+](C)(=O)[O-])ccc1Nc1c2ccccc2nc2ccccc12 | -65.5
43 | 0.0188 | CN(Cc1cnc2nc(N)nc(N)c2n1)c1ccc(C(=O)N[C@@H](CCC(=O)O)C(=O)O)cc1 | -74.9
44 | 21.1 | CC(=O)Nc1ccc(NC(=S)NC(=O)c2ccc(C(C)(C)C)cc2)cc1 | -151
45 | 10.6 | COc1cccc2c1C(=O)c1c(O)c3c(c(O)c1C2=O)C[C@@](O)(C(C)=O)C[C@@H]3O[C@H]1C[C@H](N)[C@H](O)[C@H](C)O1 | -126
46 | 16.8 | CC(C)(C)c1cc(O)ccc1O | -139
47 | 8.41 | COc1cc([C@@H]2c3cc4c(cc3C(O[C@@H]3O[C@@H]5COC(c6cccs6)O[C@H]5[C@H](O)[C@H]3O)C3COC(=O)[C@@H]32)OCO4)cc(OC)c1O (stereo partly drawn) | -94.9
48 | 5.96 | O=C(Nc1cccc(C(F)(F)F)c1)c1cc(Br)cc(Br)c1O | -140
49 | 2.66 | Nc1nc(N)c2nc(-c3ccccc3)c(N)nc2n1 | -89.3
50 | 4.73 | C[n+]1cc2c3c(ccc2c2ccc4cc5c(cc4c21)OCO5)OCO3 | -119
51 | 8.41 | Oc1c(I)cc(Cl)c2cccnc12 | -64.3
52 | 3.35 | O=[N+]([O-])c1ccc(O)c2ncccc12 | -85.4
53 | 26.6 | CC1(CN2CCC(n3c(=O)[nH]c4ccccc43)CC2)OCc2ccccc2-n2cccc21 (stereo not drawn) | -96.9
54 | 11.9 | [Cl-].C/[N+](C)=C1\C=C/C(C=C1)=C(\c2ccc(cc2)N(C)C)c3ccc(cc3)N(C)C | -130
55 | 15 | Oc1ccc(Cl)cc1Sc1cc(Cl)ccc1O | -135
56 | 1.68 | CC(=O)[C@]1(O)Cc2c(O)c3c(c(O)c2[C@@H](O[C@H]2C[C@H](N)[C@H](O)[C@H](C)O2)C1)C(=O)c1ccccc1C3=O.Cl | -121
57 | 2.37 | COc1cc(NCCCC(C)N)c2ncccc2c1 (stereo not drawn) | -124
58 | 16.8 | CCN(CC)CCCN(c1ccccc1)C1Cc2ccccc2C1.Cl | -138
59 | 0.0133 | COc1cc(NCc2ccc3nc(N)nc(N)c3c2C)cc(OC)c1OC.Cl.Cl.Cl | -80.4
